According to article PMC9814918, “Rapid optimisation of fragments and hits to lead compounds from screening of crude reaction mixtures” (Communications Chemistry, 2020):
Like-named read-outs stand apart in the source and are kept apart here.

How the values were obtained:
[1] = target: T1, PDHK2 (Homo sapiens, UniProt Q15119); assay: FP assay; format: binding; conditions: PDHK2, purified enantiomer; read-out: Kd determined by FP assay
T1 construct: human PDHK2 (residues 16–407); His tag with TEV protease cleavage site (N, cleaved yes); made in house; host or cells: BL21 cells (E. coli)

[2] = target: T1, PDHK2; assay: Soak of purified enantiomers into PDHK2 crystals; format: binding; conditions: 2 days, 2 mM
Method: CRM number 11 is a racemate of two enantiomers, 23 and 24. […] A PR was obtained for all three of the soaks of CRM number 11 in the full XChem screen that selected just the higher-affinity eutomer 23.
A final concentration of 2 mM of each of the 13 CRMs and 17 pure compounds was added into crystal drops of PDHK2 in triplicate for soak-time durations of 2–4 h, O/N and 2 days at 4 °C. In addition, the final compound concentrations of 0.5 mM and 1 mM were added into PDHK2 crystal drops in triplicate, which were subsequently left to soak for 2 days also at 4 °C. Glycerol was added as a cryoprotectant (at a final concentration of 20%) by ECHO acoustic transfer shortly before mounting the crystals in cryo-cooled pucks. All data were collected on beamline I04-1 in automated mode and autoprocessed using xia2[23].

[3] = target: T2, Hsp90 (Homo sapiens, UniProt P07900); assay: SPR off-rate (koff) of crude reaction mixtures and starting materials; format: binding; conditions: 25 °C
T2 construct: N-terminal domain of human Hsp90α (residues 1–236); made in house; host or cells: BL21 cells (E. coli)
Method: (§1) The off-rate or koff for dissociation of each of the 83 CRMs from Hsp90 and PDHK2 was measured in duplicate by SPR and is shown in Supplementary Table 1. Failure to obtain a koff value for some CRMs (not determined, ND) was due to poor signal and was most marked for PDHK2.
(§2) Both proteins (human PDHK2 (residues 16–407) and N-terminal domain of human Hsp90α (residues 1–236)) were expressed as an N-terminal His tag fusion protein with a TEV protease cleavage in BL21 cells and purified on a Ni^2+ affinity followed by size-exclusion column, details as previously described[13],[27]. Uncleaved His-tagged variants were used in SPR experiments; tags were removed for crystallisation.
(§3) SPR experiments were conducted on T200 and T100 BIAcore instruments (GE Healthcare) at 25 °C. The His-tagged proteins were immobilised on a series of S NTA chips, and the running buffer with 10 mM HEPES, pH 7.4, 150 mM NaCl, 0.05% P-20, 0.025 mM EDTA and 1% DMSO was used. The sensor surface was regenerated between cycles to eliminate any carryover of protein and/or analyte. Details are as described previously.

[4] = target: T1, PDHK2; assay: as above; format: binding
Method: as §1, §2, §3

[5] = target: T2, Hsp90; assay: KD by SPR titration of purified compounds; format: binding; conditions: purified product of the CRM, 25 °C, average of at least two determinations, read-out: KD (SPR) (µM) of pure
Source text: Table 3 summarises for each of the purified compounds from these nine CRMs, the results of a manual soaking of the purified compound or the CRM into Hsp90 crystals, and the measurement for the purified compounds of solubility and KD measured by both SPR titration and by isothermal titration calorimetry (ITC). […] This leaves anomalies for seven CRMs that gave SM. One of these had low solubility (CRM 75), leaving six CRMs giving SM on repeated manual soaking to explain.
as §3

[6] = target: T2, Hsp90; assay: Isothermal titration calorimetry; conditions: read-out: KD measured by ITC for binding to Hsp90
Method: ITC experiments were conducted at 25 °C by titration of a stock sample of 100 µM compound onto a solution of 10 µM Hsp90 in a GE ITC200 instrument.

[7] = Hsp90, SPR, CRM (SM1, SM2: starting material), read-out: koff CRM

Row | Structure (SMILES) | Kd [1] | crystal structure from soak of purified enantiomer into PDHK2 crystals [2] | koff [3, 7] | koff ([4]; read-out: koff for PDHK2) | Kd [5] | koff ([3]; SPR, CRM unpurified (SM1/SM2 head lines: starting material), duplicate, 1 given to all koff >= 1 sec-1 (limit of assay sensitivity), read-out: koff s-1 Hsp90) | koff ([4]; CRM unpurified (SM1/SM2 head lines: starting material), duplicate, 25 °C, 1 given to all koff >= 1 sec-1 (limit of assay sensitivity), read-out: koff s-1 PDHK2) | Kd [6]
1 | COc1cc2c(cc1OC)[C@@H](c1cccnc1)N(C(=O)c1ccc(O)cc1O)CC2 [Compound 24] | 17 µM | structures were obtained |  |  |  |  |  | 
2 | COc1cc2c(cc1OC)[C@H](c1cccnc1)N(C(=O)c1ccc(O)cc1O)CC2 [Compound 23] | 0.14 µM | structures were obtained |  |  |  |  |  | 
3 | CN(C(=O)c1ccc(O)cc1O)c1ccc(C(N)=O)cc1 [SM2] |  |  | 0.2 s⁻¹ | 0.083 s⁻¹ | 2 µM |  |  | 
4 | NC(=O)c1ccc(O)cc1O [SM1] |  |  | > 1 s⁻¹ | > 1 s⁻¹ | 2000 µM | ≥ 1 s⁻¹ | ≥ 1 s⁻¹ | 2000 µM
